For one test, the target named is T1, adenosine A2A receptor (Rattus norvegicus, UniProt P30543).
T1 construct: from tissue; host or cells: rat corpus striatum membrane preparation
The experiment in a line: Adenosine A2A receptor binding test (3H-CGS 21680 binding). To be noted: test compound 10^−7 mol/L; 3H-CGS 21680 binding, rat corpus striatum; read-out: A2A Receptor inhibition rate (%) at 10^−7 mol/L.

Test [1] concerns common marmoset treated with 1-methyl-4-phenyl-1,2,3,6-tetrahydropyridine (MPTP). Put plainly: Parkinson's disease model, MPTP-treated common marmoset. The test is classed as in vivo. To be noted: symptom score and spontaneous locomotor activity versus solvent-administered group. As to the method: Parkinson's disease is a disease based on the degeneration and cell death of the nigrostriatal dopaminergic neurons. […] These MPTP-treated primates are known as a model of Parkinson's disease [Proceedings of the National Academy of Science USA, vol. 80, p. 4546 (1983)]. […] 57, p. 37 (1985)].
The test was carried out using 4 female and male common marmosets of 2 to 3 year age (300 to 375 g in body weight, Japan CLEA) per group. MPTP (produced by RBI Co.) was dissolved in physiological saline for injection (produced by Otsuka Pharmaceutical Co., Ltd.), and hypodermically administered to the common marmosets once a day for 5 days in a dose of 2.0 mg/kg. Six weeks or more after the administration, animals showing chronic symptoms of Parkinson's disease were used in the test. Each test compound was used by suspending it in an aqueous solution containing 0.3% Tween 80 and 10% sucrose. Also, a solution containing no test compound was used as a control. One hour before the administration of the test compound, the animals to be tested were put into an observation cage (provided with a spontaneous locomotor activity measuring apparatus) to adapt them to the environment. The symptoms of Parkinson's disease were observed from a one-way see through window at intervals of 30 minutes for 8 hours to score the motor disability. The spontaneous locomotor activity was measured at intervals of 30 minutes for 12 hours by a computer-controlled automatic measuring apparatus. The symptoms of Parkinson's disease were decided on the basis of the criteria of each observation item shown below, and the total of the points was used as the score of each animal.
The effect was decided by comparing average scores of the symptoms of Parkinson's disease in 4 animals per group between the test compound-administered group and the solvent-administered group (significance test: Sign-Wilcoxon test). The spontaneous locomotor activity was also decided by comparison between the test compound-administered group and the solvent-administered group.

A further test has as its system male ddY mice. Put plainly: Forced swimming method (measurement of immobility time). To be noted: orally administered, 10 mg/kg, one hour before the test; versus solvent group (Steel-test). The test is classed as in vivo. As to the method:
Ten male ddY mice (21 to 26 g in body weight, Japan SLC) per group were used as test animals. During the preliminary feeding period, the animals were bred to be allowed to freely have feed (CRF-1; Oriental Yeast Co., Ltd, Tokyo) and water (tap water) in an animal room at a room temperature for 23±1° C. and a humidity of 55±5%.
Animals showing abnormal reactions in terms of spontaneous activity, myotonia, eyesight and the like were previously excluded. Each test compound was suspended in a 0.3% Tween 80 solution and orally administered one hour before the test. In the negative control group, 10 mL/kg of a 0.3% Tween 80 solution alone was orally administered. The immobility time was measured according to the Porsolt method [Arch. Int. Pharmacodyn., vol. 229, pp. 327-336 (1977)]. Namely, a cylindrical transparent acrylic water tank (10 cm in diameter and 25 cm in height) was filled with water at a temperature between 23±1° C. to a height of 9 cm, and the mice were forced to swim for 6 minutes. When the mice are put into water, they immediately start to swim trying to escape from the tank, but the motion gradually decreases 1 to 2 minutes thereafter. […] In order to reduce the effects of daily rhythm, the test was carried out using 5 of the 10 animals per group in the morning, and the remaining 5 animals in the afternoon. The immobility time was measured by observing 2 animals at the same time without telling the observers distinctions about the control group administered with the solvent alone and doses of the test compounds. Statistical analysis of the results was carried out by a multiple comparison Steel-test between the solvent-administered group and the test compound-administered group.

The next test has as its system male SD rats. The experiment in a line: Learned helplessness (LH) model. The test is classed as in vivo. The protocol: As test animals, 10 to 15 male SD rats (220 to 320 g in body weight, 7 week age, Charles River Japan, Inc., Atsugi) per group were used. During the preliminary feeding period, the animals were bred to be allowed to freely have feed (CRF-1; Oriental Yeast Co., Ltd, Tokyo) and water (tap water) in an animal room at a room temperature of 22 to 24° C. and a humidity of 50 to 60%. Each test compound was orally administered in a dose of 2 mg/kg 1 hour before RF1 (refer to the contents described below) on the second day of the test.
A shuttle box apparatus (TK-401S; produced by UNICOM, Chiba) was used as a learning experimental apparatus. On the first day, the shuttle box was divided into two rooms by setting a partition at its center, and one rat was put in each of the rooms. […] Although each rat was put in the shuttle box for 50 minutes, the charging time of inescapable shock (IES) was set to 25 minutes by computer control using a random duration time (10 to 90 seconds) and random on-off and off-on (10 to 90 seconds).
On the second day, a shuttle box test was carried out by the method of Maier [J. Comp. Physiol. Psychol., vol. 85, pp. 581-592 (1973)] and the method of Geoffroy and Christensen [Drug Dev. Res., vol. 29, pp. 48-55 (1993)] which were slightly modified. The partition at the center of the shuttle box was removed, and the box was divided into two rooms by a hurdle of 2 cm in height instead of the partition. In the shuttle box test, FRI (an electric shock of 0.6 mA was applied to the rat for 5 seconds unless the rat moved to the other room within 5 seconds after the start of buzzer sounds, and when the rat moved to the other room within 5 seconds after the start of buzzer sounds, the floor shock could be avoided, this operation being carried as one trial and repeated 15 times with an interval of 10 seconds between trials.) was carried out, continuously followed by FR2 (an electric shock of 0.6 mA was applied to the rat for 10 seconds, and then an electric shock of 0.6 mA was applied at intervals of 0.5 second for 10 seconds, this operation being carried out as one trial and repeated 15 times with an interval of 15 seconds between trials). Escape reaction was determined by the escape response calculated by the equation below on the assumption that cases showing two escape latency times of less than 10 seconds in FR2 were regarded as successful escape. Escape response (%)=(Number of trials of successful escape/15)×100
Furthermore, migration (intertrial response %) in the box other than the escape reaction observed during a period between trials (resting time) was used as an index of psychomotor stimulant action, the intertrial response being calculated by the following equation. […]

T1 sequence (P30543 whole entry): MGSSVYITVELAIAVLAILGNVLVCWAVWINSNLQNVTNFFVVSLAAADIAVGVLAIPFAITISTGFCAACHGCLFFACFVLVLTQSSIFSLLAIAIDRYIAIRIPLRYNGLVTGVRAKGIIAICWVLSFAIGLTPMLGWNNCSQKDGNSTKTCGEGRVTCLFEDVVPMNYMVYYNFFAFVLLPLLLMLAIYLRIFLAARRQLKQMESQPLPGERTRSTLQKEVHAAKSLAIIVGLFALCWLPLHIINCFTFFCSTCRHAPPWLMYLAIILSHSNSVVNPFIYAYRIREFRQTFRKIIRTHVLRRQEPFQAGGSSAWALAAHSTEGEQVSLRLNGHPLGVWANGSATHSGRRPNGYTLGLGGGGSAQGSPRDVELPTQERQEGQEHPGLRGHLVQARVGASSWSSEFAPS

As for `Nc1nc(C2CCN(CC3CC3)CC2)cc2nc(-c3ccco3)nn12` [Compound 71, 5-Amino-7-[1-(cyclopropylmethyl)piperidin-4-yl]-2-(2-furyl)-[1,2,4]triazolo[1,5-c]pyrimidine], on adenosine A2A receptor, the inhibition at 0.1 µM came out at 87%. The “effect in the common marmoset MPTP-treated Parkinson's disease model” value in test [1] is on record as “effective”. The immobility time entry in the test on male ddY mice is reported as “significant effect of decreasing the immobility time”. For the same compound, the escape response result in the test on male SD rats (IES-loaded rats, 2 mg/kg orally 1 hour before FR1) is given as “significantly recover a reduced escape response”. For the same compound, the “intertrial responses (index of psychomotor stimulant action)” value in the test with male SD rats (versus electric shock loaded control group, 2 mg/kg orally) is given as “no difference”.
